Experiments:
[1] = Liquid; for viscosity: Capillary tube (Ostwald / Ubbelohde) method; for speed of sound: Linear variable-path acoustic interferometer; for mass density: Pycnometric method
[2] = mn = molality of the nth substance listed, in mol/kg; settings: 101 kPa, Liquid; for viscosity: Capillary tube (Ostwald / Ubbelohde) method; for speed of sound: Linear variable-path acoustic interferometer; for mass density: Pycnometric method
[3] = xn = mol fraction of the nth substance listed; settings: 101 kPa, Liquid; for viscosity: Capillary tube (Ostwald / Ubbelohde) method; for speed of sound: Linear variable-path acoustic interferometer; for mass density: Pycnometric method

C[S+](C)[O-] [dimethyl sulfoxide]
[1], 101.33 kPa
Settings | mass density [kg/m3] | speed of sound [m/s] | viscosity [mPa·s]
308.15 K | 1085.9 | 1457.9 | 1.655
318.15 K | 1075.6 | 1423.4 | 1.392

[F-].[K+] [potassium fluoride] + O
[2]
Settings | mass density [kg/m3] | speed of sound [m/s] | viscosity [mPa·s]
303.15 K, m1 = 0.05 | 998.2 | 1515.5 | 0.805
303.15 K, m1 = 0.1 | 1000.4 | 1518.9 | 0.811
303.15 K, m1 = 0.15 | 1002.6 | 1522.1 | 0.819
303.15 K, m1 = 0.2 | 1004.7 | 1525.8 | 0.827
308.15 K, m1 = 0.05 | 996.6 | 1524 | 0.726
308.15 K, m1 = 0.1 | 998.8 | 1526.9 | 0.734
308.15 K, m1 = 0.15 | 1001 | 1530.5 | 0.741
308.15 K, m1 = 0.2 | 1003.2 | 1534 | 0.745
313.15 K, m1 = 0.05 | 994.7 | 1531.4 | 0.66
313.15 K, m1 = 0.1 | 997 | 1536.1 | 0.668
313.15 K, m1 = 0.15 | 999.1 | 1538.6 | 0.672
313.15 K, m1 = 0.2 | 1001.2 | 1542.4 | 0.679
318.15 K, m1 = 0.05 | 992.7 | 1538.6 | 0.604
318.15 K, m1 = 0.1 | 994.8 | 1543.4 | 0.612
318.15 K, m1 = 0.15 | 997 | 1546.2 | 0.615
318.15 K, m1 = 0.2 | 999.2 | 1549.4 | 0.622

O [water]
[1], 101 kPa
Settings | speed of sound [m/s] | viscosity [mPa·s]
303.15 K | 1512 | 0.797
308.15 K | – | 0.719
313.15 K | 1528 | 0.653
318.15 K | 1535.2 | 0.597

C[S+](C)[O-] [dimethyl sulfoxide] + O
[3]
Settings | mass density [kg/m3] | speed of sound [m/s] | viscosity [mPa·s]
303.15 K, x1 = 0.0121 | 1002 | 1534.6 | 0.9
303.15 K, x1 = 0.0255 | 1008 | 1556.6 | 0.979
303.15 K, x1 = 0.0424 | 1015.3 | 1580 | 1.089
303.15 K, x1 = 0.0583 | 1021.4 | 1602.7 | 1.224
308.15 K, x1 = 0.0121 | 1000.3 | 1541.3 | 0.805
308.15 K, x1 = 0.0255 | 1006.4 | 1561.7 | 0.888
308.15 K, x1 = 0.0424 | 1013.6 | 1583.1 | 0.988
308.15 K, x1 = 0.0583 | 1019.3 | 1603.5 | 1.102
313.15 K, x1 = 0.0121 | 998.5 | 1546.2 | 0.729
313.15 K, x1 = 0.0255 | 1004.4 | 1566 | 0.806
313.15 K, x1 = 0.0424 | 1011.4 | 1586.1 | 0.887
313.15 K, x1 = 0.0583 | 1017.6 | 1604.9 | 1.002
318.15 K, x1 = 0.0121 | 996.2 | 1552.4 | 0.667
318.15 K, x1 = 0.0255 | 1002.3 | 1569.7 | 0.735
318.15 K, x1 = 0.0424 | 1009.3 | 1587.2 | 0.808
318.15 K, x1 = 0.0583 | 1015.3 | 1603.3 | 0.903
